# Measurements published in ChEMBL document CHEMBL1143248, “Adenosine analogues as inhibitors of P2Y12 receptor mediated platelet aggregation” (Bioorg Med Chem Lett, 2008).
# Target: not listed separately
# Experiment: Antagonist activity at P2Y12 receptor assessed as platelet aggregation by washed platelet assay
row,IC50 [nM],Structure (SMILES)
1,16,CCNC(=O)Nc1ncnc2c1ncn2[C@@H]1O[C@H](COP(=O)(O)O)[C@H]2O[C@H](/C=C/c3ccccc3)O[C@H]21 [REGRELOR DISODIUM]

# Target: P2Y purinoceptor 12 (Homo sapiens) (UniProt Q9H244)
# Sequence (Q9H244 whole entry): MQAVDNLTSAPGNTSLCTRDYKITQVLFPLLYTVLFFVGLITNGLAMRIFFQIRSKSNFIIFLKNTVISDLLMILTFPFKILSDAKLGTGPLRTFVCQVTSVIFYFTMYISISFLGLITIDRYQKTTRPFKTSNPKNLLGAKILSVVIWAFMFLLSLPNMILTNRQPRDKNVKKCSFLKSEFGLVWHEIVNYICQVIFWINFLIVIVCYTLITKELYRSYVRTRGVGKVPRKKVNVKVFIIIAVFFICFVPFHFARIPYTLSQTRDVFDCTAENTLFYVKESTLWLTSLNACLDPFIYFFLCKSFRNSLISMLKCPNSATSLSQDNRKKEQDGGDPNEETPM
# Experiment: Antagonist activity at P2Y12 receptor assessed as platelet aggregation at 30 uM by washed platelet assay
# Type: functional
row,Structure (SMILES),inhibition [%]
1,CCNC(=O)Nc1ncnc2c1ncn2[C@@H]1O[C@H](CNC/C(C)=C/C(=O)OCC)[C@H]2O[C@H](/C=C/c3ccccc3)O[C@H]21,70
2,CCNC(=O)Nc1ncnc2c1ncn2[C@@H]1O[C@H](CSCC(C)O)[C@H]2O[C@H](/C=C/c3ccccc3)O[C@H]21 (stereo not given in full),76
3,CCNC(=O)Nc1ncnc2c1ncn2[C@@H]1O[C@H](CNC(=O)c2[nH]c(C)c(C(C)=O)c2C)[C@H]2O[C@H](/C=C/c3ccccc3)O[C@H]21,53
4,CCNC(=O)Nc1ncnc2c1ncn2[C@@H]1O[C@H](CSCCCS(=O)(=O)O)[C@H]2O[C@H](/C=C/c3ccccc3)O[C@H]21,90
5,CCNC(=O)Nc1ncnc2c1ncn2[C@@H]1O[C@H](CSC)[C@H]2O[C@H](/C=C/c3ccccc3)O[C@H]21,63
6,CCNC(=O)Nc1ncnc2c1ncn2[C@@H]1O[C@H](CNCc2nccs2)[C@H]2O[C@H](/C=C/c3ccccc3)O[C@H]21,73
7,CCNC(=O)Nc1ncnc2c1ncn2[C@@H]1O[C@H](CS(=O)(=O)CCO)[C@H]2O[C@H](/C=C/c3ccccc3)O[C@H]21,57
8,CCCCCCCSC[C@H]1O[C@@H](n2cnc3c(NC(=O)NCC)ncnc32)[C@@H]2O[C@@H](/C=C/c3ccccc3)O[C@@H]21,38
9,CCNC(=O)Nc1ncnc2c1ncn2[C@@H]1O[C@H](CNCc2ccccc2O)[C@H]2O[C@H](/C=C/c3ccccc3)O[C@H]21,70

# Next, values leading:
row,inhibition [%],Structure (SMILES)
1,46,CCNC(=O)Nc1ncnc2c1ncn2[C@@H]1O[C@H](CN(CC2CC2C(=O)OCC)CC2CC2C(=O)OCC)[C@H]2O[C@H](/C=C/c3ccccc3)O[C@H]21 (stereo not given in full)
2,52,CCCSC[C@H]1O[C@@H](n2cnc3c(NC(=O)NCC)ncnc32)[C@@H]2O[C@@H](/C=C/c3ccccc3)O[C@@H]21
3,65,CCCS(=O)(=O)C[C@H]1O[C@@H](n2cnc3c(NC(=O)NCC)ncnc32)[C@@H]2O[C@@H](/C=C/c3ccccc3)O[C@@H]21
4,63,CCNC(=O)Nc1ncnc2c1ncn2[C@@H]1O[C@H](CSCCO)[C@H]2O[C@H](/C=C/c3ccccc3)O[C@H]21
5,14,CCNC(=O)Nc1ncnc2c1ncn2[C@@H]1O[C@H](CS(=O)(=O)CC(O)CO)[C@H]2O[C@H](/C=C/c3ccccc3)O[C@H]21 (stereo not given in full)
